Where “and” joins values, the source holds several entries; their conditions need not be identical. Equal values may be shown once. Read-outs that look alike come from different tables or passages of the source.
Key:
Settings in all cases: COS-7 membranes
α1a-AR = biological target: T1, α1a-AR (Homo sapiens, UniProt P35348); test: α1-Adrenergic Receptor Binding Assay, 125I-HEAT radio-ligand binding, transfected COS-7 cell membranes, α1a subtype
T1 construct: expressed in transfected cells; host or cells: COS-7 cells (African Green monkey kidney), membranes
T1 sequence (P35348 1-466): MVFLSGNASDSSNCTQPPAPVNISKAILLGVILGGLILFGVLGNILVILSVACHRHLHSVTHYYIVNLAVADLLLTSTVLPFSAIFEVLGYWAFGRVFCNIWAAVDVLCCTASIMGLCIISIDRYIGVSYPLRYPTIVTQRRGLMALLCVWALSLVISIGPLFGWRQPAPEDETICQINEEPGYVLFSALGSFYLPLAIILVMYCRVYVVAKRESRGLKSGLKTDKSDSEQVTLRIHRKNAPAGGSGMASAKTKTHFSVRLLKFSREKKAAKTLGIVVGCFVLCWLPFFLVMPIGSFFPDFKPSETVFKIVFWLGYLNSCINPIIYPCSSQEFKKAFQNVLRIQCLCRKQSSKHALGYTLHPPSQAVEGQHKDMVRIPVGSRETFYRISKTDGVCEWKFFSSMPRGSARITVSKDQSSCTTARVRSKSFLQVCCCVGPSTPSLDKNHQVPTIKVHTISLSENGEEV
Experimental: (§1) Membranes were prepared from COS-7 cells (African Green monkey kidney SV40-transformed cells) that had been transfected with one of the three α1-AR subtypes by the following method: COS cells from ten 100 mm tissue culture plates were scraped into a 5 ml volume of TE (a mixture of 50 mM tris(hydroxymethyl)aminomethane hydrochloride (Tris-HCl) and 5 mM ethylenediaminetetraacetic acid (EDTA) at pH 7.4). The cell suspension was disrupted with a Brinkman Polytron (at a setting of 8) for 10 sec. The disrupted cells were centrifuged at 1000×g for 10 min at 4° C. Supernatants were centrifuged at 34,500×g for 20 min at 4° C. The membrane pellets were suspended in a 2 ml volume of TNE (a mixture of 50 mM Tris-HCl, 5 mM EDTA and 150 mM NaCl at pH7.4). An aliquot of the membrane suspension was stored at −70° C. until use. The protein concentration was determined using a BioRad “DC” protein assay kit following membrane solubilization with Triton X-100.
(§2) Triplicate determinations of radio-ligand binding in the presence of increasing concentrations of testing compound were made. The reagents were added to 96-well polypropylene plate wells. Each assay well contained 140 μL TNE, 25 μL 125′-2-(β-4-hydroxyphenyl)ethylaminomethyltetralone (^125I-HEAT) (specific activity 2200 Ci/mmol, Dupont-New England Nuclear, […] final), 10 μL testing compound dissolved in dimethyl sulfoxide (DMSO) ([…] to 10 μM in half-log increments, final), and 25 μL appropriate α1-AR membrane subtype suspension in TNE (0.5 ng/μL for the α1a and α1b subtypes and 13 ng/μL for the α1d subtype). The plate was incubated at rt for 1 hr. The contents of the wells were filtered through a glass filter (type C) (GF/C) membrane Unifilter plate (Packard Instruments) using the Packard Filtermate cell harvester. The filter plates were dried in a vacuum oven for 30 min at 40° C. 25 μL Microscint 20 liquid scintillation fluid (Packard Instuments) was added to each well. The radioactive content was analyzed in the TopCount microplate scintillation counter (Packard Instruments).
(§3) The Ki values (in nM) shown in Table 1 were determined using GraphPad Prism software.

α1b-AR = biological target: T2, α1b-AR (Homo sapiens, UniProt P35368); test: α1-Adrenergic Receptor Binding Assay, 125I-HEAT radio-ligand binding, transfected COS-7 cell membranes, α1b subtype
T2 construct: expressed in transfected cells; host or cells: COS-7 cells (African Green monkey kidney), membranes
T2 sequence (P35368 1-520): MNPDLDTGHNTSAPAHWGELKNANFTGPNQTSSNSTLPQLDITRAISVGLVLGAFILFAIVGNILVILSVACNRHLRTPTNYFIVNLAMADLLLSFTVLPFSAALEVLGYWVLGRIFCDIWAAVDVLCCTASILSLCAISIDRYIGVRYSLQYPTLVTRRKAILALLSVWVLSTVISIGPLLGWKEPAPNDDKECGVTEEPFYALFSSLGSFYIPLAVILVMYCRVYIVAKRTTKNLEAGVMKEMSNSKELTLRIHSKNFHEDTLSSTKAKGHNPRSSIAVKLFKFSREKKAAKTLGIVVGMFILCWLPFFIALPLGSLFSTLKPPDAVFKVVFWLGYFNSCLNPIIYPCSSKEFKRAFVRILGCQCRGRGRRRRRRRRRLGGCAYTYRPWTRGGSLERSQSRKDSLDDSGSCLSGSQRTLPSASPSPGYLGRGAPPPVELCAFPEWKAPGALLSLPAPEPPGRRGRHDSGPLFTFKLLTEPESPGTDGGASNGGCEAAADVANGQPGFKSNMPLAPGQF
Experimental: as §1, §2, §3

α1d-AR = biological target: T3, α1d-AR (Homo sapiens, UniProt P25100); test: α1-Adrenergic Receptor Binding Assay, 125I-HEAT radio-ligand binding, transfected COS-7 cell membranes, α1d subtype
T3 construct: expressed in transfected cells; host or cells: COS-7 cells (African Green monkey kidney), membranes
T3 sequence (P25100 1-572): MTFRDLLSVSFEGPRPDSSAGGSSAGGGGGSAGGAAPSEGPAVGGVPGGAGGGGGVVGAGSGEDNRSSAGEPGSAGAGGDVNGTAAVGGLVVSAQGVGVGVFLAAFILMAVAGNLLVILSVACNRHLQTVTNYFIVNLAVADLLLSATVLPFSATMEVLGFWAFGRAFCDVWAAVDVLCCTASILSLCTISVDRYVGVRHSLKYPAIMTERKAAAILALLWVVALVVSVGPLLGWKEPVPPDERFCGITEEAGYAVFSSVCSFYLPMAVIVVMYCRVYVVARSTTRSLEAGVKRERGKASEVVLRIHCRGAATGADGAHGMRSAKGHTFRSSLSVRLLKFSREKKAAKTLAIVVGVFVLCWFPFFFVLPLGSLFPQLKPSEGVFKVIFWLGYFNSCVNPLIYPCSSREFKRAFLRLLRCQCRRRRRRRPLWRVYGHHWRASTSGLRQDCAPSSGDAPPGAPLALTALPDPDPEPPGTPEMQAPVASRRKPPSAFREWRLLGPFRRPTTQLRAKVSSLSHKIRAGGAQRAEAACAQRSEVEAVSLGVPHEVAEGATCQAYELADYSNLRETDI
Experimental: as §1, §2, §3

[1] = average value, read-out: Alpha 1 Ki α1a (1) Average Value
[2] = individual values, read-out: Alpha 1 Ki α1a (2) Individual Values
[3] = average value, read-out: Alpha 1 Ki α1b (1) Average Value
[4] = individual values, read-out: Alpha 1 Ki α1b (2) Individual Values
[5] = average value, read-out: Alpha 1 Ki α1d (1) Average Value
[6] = individual values, read-out: Alpha 1 Ki α1d (2) Individual Values

| Compound | Ki (α1a-AR; [1]) | Ki (α1a-AR; [2]) | Ki (α1b-AR; [3]) | Ki (α1b-AR; [4]) | Ki (α1d-AR; [5]) | Ki (α1d-AR; [6]) |
| --- | --- | --- | --- | --- | --- | --- |
| CC(C)Oc1ccccc1N1CCN(CC2CC(CN3CCCCC3=O)=NO2)CC1 (stereo not shown) [Compound 1, 1-{5-[4-(2-isopropoxy-phenyl)-piperazin-1-ylmethyl]-4,5-dihydro-isoxazol-3-ylmethyl}-piperidin-2-one] | 0.00096 µM | 0.00096 µM | 0.082 µM | 0.082 µM | 0.0085 µM | 0.0085 µM |
| CC(C)Oc1ccccc1N1CCN(CC2CC(CN3CCc4ccccc43)=NO2)CC1 (stereo not shown) [Compound 4, 1-{5-[4-(2-isopropoxy-phenyl)-piperazin-1-ylmethyl]-4,5-dihydro-isoxazol-3-ylmethyl}-2,3-dihydro-1H-indole] | 0.0019 µM | 0.0019 µM | 0.101 µM | 0.101 µM | 0.01 µM | 0.01 µM |
| CC(C)Oc1ccccc1N1CCN(CC2CC(CN3CCCCC3)=NO2)CC1 (stereo not shown) [Compound 5, 1-(2-isopropoxy-phenyl)-4-(3-piperidin-1-ylmethyl-4,5-dihydro-isoxazol-5-ylmethyl)-piperazine] | 0.01 µM | 0.01 µM | 5 µM | 5 µM | 0.178 µM | 0.178 µM |
| CC(C)Oc1ccccc1N1CCN(CC2CC(CN3CCc4ccc(N)cc43)=NO2)CC1 (stereo not shown) [Compound 6, 1-{5-[4-(2-isopropoxy-phenyl)-piperazin-1-ylmethyl]-4,5-dihydro-isoxazol-3-ylmethyl}-2,3-dihydro-1H-indol-6-ylamine] | 0.0043 µM | 0.0043 µM | 0.41 µM | 0.41 µM | 0.046 µM | 0.046 µM |
| CC(C)Oc1ccccc1N1CCN(CC2CC(CN3CCc4ccc(NCc5c(F)cccc5F)cc43)=NO2)CC1 (stereo not shown) [Compound 7, (2,6-difluoro-benzyl)-(1-{5-[4-(2-isopropoxy-phenyl)-piperazin-1-ylmethyl]-4,5-dihydro-isoxazol-3-ylmethyl}-2,3-dihydro-1H-indol-6-yl)-amine] | 0.0064 µM | 0.0064 µM | 0.172 µM | 0.172 µM | 0.0094 µM | 0.0094 µM |
| CC(C)Oc1ccccc1N1CCN(CC2CC(CN3CCc4ccc(NCc5ccccc5F)cc43)=NO2)CC1 (stereo not shown) [Compound 8, (2-fluoro-benzyl)-(1-{5-[4-(2-isopropoxy-phenyl)-piperazin-1-ylmethyl]-4,5-dihydro-isoxazol-3-ylmethyl}-2,3-dihydro-1H-indol-6-yl)-amine] | 0.0069 µM | 0.0069 µM | 0.304 µM | 0.304 µM | 0.035 µM | 0.035 µM |
| COc1cccc(CNc2ccc3c(c2)N(CC2=NOC(CN4CCN(c5ccccc5OC(C)C)CC4)C2)CC3)c1 (stereo not shown) [Compound 9, (1-{5-[4-(2-isopropoxy-phenyl)-piperazin-1-ylmethyl]-4,5-dihydro-isoxazol-3-ylmethyl}-2,3-dihydro-1H-indol-6-yl)-(3-methoxy-benzyl)-amine] | 0.034 µM | 0.034 µM | 0.195 µM | 0.195 µM | 0.022 µM | 0.022 µM |

The remaining lines, values ahead:

| Ki (α1a-AR; [1]) | Ki (α1a-AR; [2]) | Ki (α1b-AR; [3]) | Ki (α1b-AR; [4]) | Ki (α1d-AR; [5]) | Ki (α1d-AR; [6]) | Compound |
| --- | --- | --- | --- | --- | --- | --- |
| 0.00212 µM | 0.0014 µM and 0.0034 µM and 0.0031 µM and 0.0019 µM and 0.0008 µM | 0.107 µM | 0.09 µM and 0.145 µM and 0.092 µM and 0.0876 µM and 0.121 µM | 0.0013 µM |  | CC(C)Oc1ccccc1N1CCN(CC2CC(C(=O)N3CCc4ccccc43)=NO2)CC1 (stereo not shown) [Compound 10, (2,3-dihydro-indol-1-yl)-{5-[4-(2-isopropoxy-phenyl)-piperazin-1-ylmethyl]-4,5-dihydro-isoxazol-3-yl}-methanone] |
| 0.00142 µM | 0.0022 µM and 0.00063 µM | 0.145 µM | 0.153 µM and 0.136 µM | 0.00183 µM | 0.0031 µM and 0.00055 µM | CC(C)Oc1ccccc1N1CCN(CC2CC(C(=O)N3CCc4ccc([N+](=O)[O-])cc43)=NO2)CC1 (stereo not shown) [Compound 11, {5-[4-(2-isopropoxy-phenyl)-piperazin-1-ylmethyl]-4,5-dihydro-isoxazol-3-yl}-(6-nitro-2,3-dihydro-indol-1-yl)-methanone] |
| 0.00181 µM | 0.00102 µM and 0.0017 µM and 0.0027 µM | 0.249 µM | 0.334 µM and 0.174 µM and 0.239 µM | 0.0178 µM | 0.029 µM and 0.018 µM and 0.00626 µM | CC(C)Oc1ccccc1N1CCN(CC2CC(C(=O)N3CCCCC3)=NO2)CC1 (stereo not shown) [Compound 12, {5-[4-(2-isopropoxy-phenyl)-piperazin-1-ylmethyl]-4,5-dihydro-isoxazol-3-yl}-piperidin-1-yl-methanone] |
| 0.00248 µM | 0.00131 µM and 0.0024 µM and 0.0037 µM and 0.0025 µM | 0.191 µM | 0.402 µM and 0.147 µM and 0.134 µM and 0.0828 µM | 0.00608 µM |  | CC(C)Oc1ccccc1N1CCN(CC2CC(C(=O)N3CCc4cc(Br)ccc43)=NO2)CC1 (stereo not shown) [Compound 13, (5-bromo-2,3-dihydro-indol-1-yl)-{5-[4-(2-isopropoxy-phenyl)-piperazin-1-ylmethyl]-4,5-dihydro-isoxazol-3-yl}-methanone] |
| 0.002 µM | 0.002 µM | 0.141 µM | 0.141 µM | 0.0028 µM | 0.0028 µM | CC(C)Oc1ccccc1N1CCN(CC2CC(C(=O)N3CCc4ccc(N)cc43)=NO2)CC1 (stereo not shown) [Compound 14, (6-amino-2,3-dihydro-indol-1-yl)-{5-[4-(2-isopropoxy-phenyl)-piperazin-1-ylmethyl]-4,5-dihydro-isoxazol-3-yl}-methanone] |
| 0.0096 µM | 0.0096 µM | 0.128 µM | 0.128 µM | 0.0116 µM | 0.0116 µM | CC(C)Oc1ccccc1N1CCN(CC2CC(C(=O)N3CCc4ccc(NCc5ccccc5F)cc43)=NO2)CC1 (stereo not shown) [Compound 15, [6-(2-fluoro-benzylamino)-2,3-dihydro-indol-1-yl]-{5-[4-(2-isopropoxy-phenyl)-piperazin-1-ylmethyl]-4,5-dihydro-isoxazol-3-yl}-methanone] |
